Data as given in patent publication US11008290B2, “Halogenated quinoline derivatives as antimicrobial agents” (University of Florida Research Foundation, Incorporated, priority 2015, dated 2021).
Values after ≈ are worked out from the molar mass of the structure shown. Read-outs that look alike come from different tables or passages of the source.

What was measured:
[1] = tested on: methicillin-resistant Staphylococcus aureus-2 (MRSA-2; clinical isolate); assay: Minimum inhibitory concentration (MIC) susceptibility assay, broth microdilution; type: cell-based
Description: (§1) The minimum inhibitory concentration (MIC) for each compound was determined by the broth microdilution method as recommended by the Clinical and Laboratory Standards Institute (CLSI). In a 96-well plate, eleven two-fold serial dilutions of each compound were made in a final volume of 100 μL Luria Broth. Each well was inoculated with ˜10^5 bacterial cells at the initial time of incubation, prepared from a fresh log phase culture (OD600 of 0.5 to 1.0 depending on bacterial strain). […] The concentration range tested for each compound during this study was 0.10 to 100 μM. DMSO served as the vehicle and negative control in each microdilution MIC assay. DMSO was serially diluted with a top concentration of 1% v/v. Bacterial strains used: methicillin-resistant Staphylococcus aureus-2 (MRSA-2; clinical isolate from Shands Hospital in Gainesville, Fla.), methicillin-resistant Staphylococcus epidermidis (MRSE; ATCC 35984), vancomycin-resistant Enterococcus faecium (VRE, ATCC 700221).

[2] = tested on: vancomycin-resistant Enterococcus faecium (VRE, ATCC 700221); assay: as above; type: cell-based; conditions: read-out: VRE MIC
Description: as §1

[3] = tested on: MRSE (ATCC 35984) planktonic cells and biofilms; assay: Calgary Biofilm Device (CBD) MBC/MBEC determination; type: cell-based, Staphylococcus epidermidis; conditions: Staphylococcus epidermidis
Description: (§2) Biofilm eradication experiments were performed using the Calgary Biofilm Device to determine MBC/MBEC values for various compounds of interest (Innovotech, product code: 19111). The Calgary device (96-well plate with lid containing 96 total pegs to establish biofilms; 1 peg/well) was inoculated with 125 μL of a mid-log phase culture diluted 1,000-fold in tryptic soy broth with 0.5% glucose (TSBG) to establish bacterial biofilms after incubation at 37° C. for 24 hours. The lid of the Calgary device was then removed, washed and transferred to another 96-well plate containing 2-fold serial dilutions of the test compounds (the “challenge plate”). The total volume of media with compound in each well in the challenge plate was 150 μL. The Calgary device was then incubated at 37° C. for 24 hours. The lid was then removed from the challenge plate and MBC/MBEC values were determined using different final assays. […] The MBC values were determined as the concentration giving a lack of visible bacterial growth (e.g., turbidity). For determination of MBEC values, the Calgary device lid (with attached pegs/treated biofilms) was transferred to a new 96-well plate containing 150 μL of fresh TSBG media in each well and incubated for 24 hours at 37° C. to allow viable biofilms to grow and disperse resulting in turbidity after the incubation period. […] In select experiments, treated pegs from the Calgary device were removed from lead biofilm eradicators after final incubation, sonicated for 30 minutes in PBS and plated out to determine biofilm cell killing (e.g., colony forming unit per milliliter, CFU/mL).

[4] = tested on: VRE (ATCC 700221) planktonic cells and biofilms; assay: as above; type: cell-based, Enterococcus faecium; conditions: Enterococcus
Description: as §2

MRSA BAA-1707 = assay: as above; type: cell-based, Staphylococcus aureus; conditions: for MBC: Staphylococcus aureus, read-out: MRSA BAA-1707 MBC; for MRSA BAA-1707 MBEC: biofilm eradication, second value of cell
Description: as §2

[5] = tested on: MRSA-2 planktonic cells and biofilms; assay: as above; type: cell-based, Staphylococcus aureus; conditions: CBD; for MBC: planktonic killing, first value of MBC/MBEC cell
Description: as §2

human red blood cells = assay: Hemolysis assay; type: cell-based
Description: Freshly drawn human red blood cells (hRBC with ethylenediaminetetraacetic acid (EDTA) as an anticoagulant) were washed with Tris-buffered saline (0.01M Tris-base, 0.155M sodium chloride (NaCl), pH 7.2) and centrifuged for 5 minutes at 3500 rpm. The washing was repeated three times with the buffer. In 96-well plate, the test compounds were added to the buffer. […] The plate was then incubated for 1 hour at 37° C. After incubation, the plate is centrifuged for 5 minutes at 3500 rpm. Then 80 μL of the supernatant were transferred to another 96-well plate and the Optical Density (OD) was read at 405 nm. […] The percent of hemolysis was calculated as (OD405 of the compound-OD405 DMSO)/(OD405 Triton X-OD405 buffer).

[6] = tested on: methicillin-resistant Staphylococcus epidermidis (MRSE; ATCC 35984); assay: Minimum inhibitory concentration (MIC) susceptibility assay, broth microdilution; type: cell-based; conditions: read-out: MRSE MIC
Description: as §1

MRSA-2 = assay: Mechanistic investigations with metal(II)-cations (MIC assay with 200 μM metal salt); type: cell-based, Staphylococcus aureus; conditions: MRSA-2; for Fold Δ (MIC w/Cu^2+) / Fold Δ (MIC w/Fe^2+) / Fold Δ (MIC w/Zn^2+): change in antibacterial activity according to MIC values; for MIC: Staphylococcus aureus
Description: as §1

[7] = Staphylococcus, MRSA, Table 3, at least three independent experiments, read-out: MRSA-2 MIC
[8] = Table 3, planktonic killing, CBD, first value of cell, read-out: MRSE MBC
[9] = Table 3, planktonic killing, CBD, first value of cell, footnote c = lowest concentration tested, read-out: VRE MBC
[10] = Table 4, planktonic killing, CBD, first value of cell
[11] = Staphylococcus aureus, MRSA, Table 3, read-out: MRSA-2 MBC
[12] = Staphylococcus epidermidis, Table 3
[13] = Staphylococcus, MRSA, read-out: MIC
[14] = 200 μM ammonium iron (II) sulfate hexahydrate, read-out: MIC w/Fe^2+
[15] = 200 μM copper (II) sulfate, read-out: MIC w/Cu^2+
[16] = 200 μM zinc (II) chloride, read-out: MIC w/Zn^2+
[17] = Staphylococcus epidermidis, Table 2, ATCC 35984
[18] = Table 2, read-out: MRSA-2 Clinical Isolate MBC
[19] = Staphylococcus, MRSA, Table 2, 2 to 6 independent experiments, read-out: MRSA-2 MIC
[20] = Table 2, human red blood cells, 1 hour at 37° C.

| SMILES | MIC [1, 7] [µM] | MIC ([2]; Table 3) [µM] | MBC [3, 8] [µM] | MBC [4, 9] [µM] | MBC (MRSA BAA-1707; [10]) [µM] | MBC [5, 11] [µM] | % Haemolysis at 200 μM (human red blood cells; human, 1 h, pH 7.2) [%] | MIC [6, 12] [µM] | MIC [1, 13] [µM] | MIC [6, 17] [µM] | MRSA BAA-1707 MBEC (MRSA BAA-1707; Table 4, CBD) | further results |
| --- | --- | --- | --- | --- | --- | --- | --- | --- | --- | --- | --- | --- |
| CCCc1ccc2c(Br)cc(Br)c(O)c2n1 [A-HQ-3] | 0.78 (≈ 0.269 µg/mL) | 0.78 (≈ 0.269 µg/mL) | 9.38 (≈ 3.24 µg/mL) | 2 (≈ 0.69 µg/mL) | 31.3 (≈ 10.8 µg/mL) | 125 (≈ 43.1 µg/mL) | ≤1 | – | – | – | – | – |
| CCCc1ccc2c(I)cc(I)c(O)c2n1 [A-HQ-4] | 1.56 (≈ 0.685 µg/mL) | 0.39 (≈ 0.171 µg/mL) | 125 (≈ 54.9 µg/mL) | 7.8 (≈ 3.42 µg/mL) | – | 188 (≈ 82.5 µg/mL) | ≤1 | 1.17 (≈ 0.514 µg/mL) | 1.56 (≈ 0.685 µg/mL) | – | – | Fold Δ (MIC w/Cu^2+) (MRSA-2): +8 fold; Fold Δ (MIC w/Fe^2+) (MRSA-2): +64 fold; Fold Δ (MIC w/Zn^2+) (MRSA-2): −8 fold; MIC (MRSA-2; [14]): > 100 µM; MIC (MRSA-2; [15]): 12.5 µM; MIC (MRSA-2; [16]): 0.2 µM |
| CC(C)Cc1ccc2c(Br)cc(Br)c(O)c2n1 [A-HQ-5] | 0.78 (≈ 0.28 µg/mL) | 100 (≈ 35.9 µg/mL) | – | – | 31.3 (≈ 11.2 µg/mL) | – | 12.3 | – | – | – | – | – |
| Oc1c(Br)cc(Br)c2ccc(CCc3ccc(Br)cc3)nc12 [A-HQ-7] | 9.38 (≈ 4.56 µg/mL) | 2.35 (≈ 1.14 µg/mL) | 250 (≈ 122 µg/mL) | 9.38 (≈ 4.56 µg/mL) | – | 375 (≈ 182 µg/mL) | ≤1 | 1.17 (≈ 0.569 µg/mL) | 9.38 (≈ 4.56 µg/mL) | – | – | Fold Δ (MIC w/Cu^2+) (MRSA-2): +11 fold; Fold Δ (MIC w/Fe^2+) (MRSA-2): +11 fold; Fold Δ (MIC w/Zn^2+) (MRSA-2): −8 fold; MIC (MRSA-2; [14]): > 100 µM; MIC (MRSA-2; [15]): > 100 µM; MIC (MRSA-2; [16]): 1.17 µM |
| CCCCCCCCCC(=O)N[C@@H](Cc1c[nH]c2ccccc12)C(=O)N[C@H](CC(N)=O)C(=O)N[C@@H](CC(=O)O)C(=O)N[C@@H]1C(=O)NCC(=O)N[C@@H](CCCN)C(=O)N[C@@H](CC(=O)O)C(=O)N[C@H](C)C(=O)N[C@@H](CC(=O)O)C(=O)NCC(=O)N[C@H](CO)C(=O)N[C@@H]([C@H](C)CC(=O)O)C(=O)N[C@@H](CC(=O)c2ccccc2N)C(=O)O[C@@H]1C [Daptomycin, reference compound] | – | – | – | – | 125 (≈ 203 µg/mL) | 62.5 (≈ 101 µg/mL) | 1.7 | – | – | 12.5 (≈ 20.3 µg/mL) | unable to eradicate | MIC ([6]; Table 3): 12.5 µM (≈ 20.3 µg/mL); MBC [5, 18]: 62.5 µM (≈ 101 µg/mL) |
| Oc1c(Br)cc(Br)c2ccc(CNc3ccccc3)nc12 [HQ-3] | – | – | – | – | 62.5 (≈ 25.5 µg/mL) | – | – | – | 1.13 (≈ 0.461 µg/mL) | 0.15 (≈ 0.0612 µg/mL) | – | MIC ([6]; Staphylococcus epidermidis, 18 h, Table 2, ATCC 35984): 0.15 to 0.3 µM (≈ 0.0612 to 0.122 µg/mL); MIC [1, 19]: 0.78 µM (≈ 0.318 µg/mL); MIC ([2]; 18 h, Table 2, ATCC 700221): 0.39 to 0.78 µM (≈ 0.159 to 0.318 µg/mL); MIC ([2]; Table 2, ATCC 700221): 0.78 µM (≈ 0.318 µg/mL); MBC ([3]; Table 2, planktonic killing, CBD, first value of cell, read-out: MRSE ATCC 35984 MBC): 7.8 µM (≈ 3.18 µg/mL); MBC ([4]; Table 2, planktonic killing, CBD, first value of cell, read-out: VRE ATCC 700221 MBC): 7.8 µM (≈ 3.18 µg/mL); MBC ([5]; Staphylococcus aureus, MRSA, Table 2, read-out: MRSA-2 Clinical Isolate MBC): 125 µM (≈ 51 µg/mL); MRSA-2 MBEC ([5]; Table 3, biofilm eradication, second value of MBC/MBEC cell): equipotent biofilm eradication activities |
| CC(=O)NC[C@H]1CN(c2ccc(N3CCOCC3)c(F)c2)C(=O)O1 [Linezolid, reference compound] | – | 3.13 (≈ 1.06 µg/mL) | – | – | 31.3 (≈ 10.6 µg/mL) | – | – | – | – | 3.13 (≈ 1.06 µg/mL) | unable to eradicate | MIC ([6]; Table 3): 3.13 µM (≈ 1.06 µg/mL); MIC [1, 19]: 3.13 µM (≈ 1.06 µg/mL); MIC ([1]; Table 3, at least three independent experiments, read-out: MRSA-2 MIC): 3.13 µM (≈ 1.06 µg/mL); MIC ([2]; Table 2, ATCC 700221): 3.13 µM (≈ 1.06 µg/mL); % Haemolysis at 200 μM (human red blood cells; [20]): ≤1%; % Haemolysis at 200 μM (human red blood cells; Table 3, human red blood cells): ≤1% |
| Oc1c(I)cc(I)c2ccc(CNc3ccc(Br)cc3)nc12 [RA-HQ-23] | 25 (≈ 14.5 µg/mL) | 25 (≈ 14.5 µg/mL) | 125 (≈ 72.6 µg/mL) | 31.3 (≈ 18.2 µg/mL) | – | > 1000 | 3.3 | 12.5 (≈ 7.26 µg/mL) | – | – | – | – |
| CN[C@H](CC(C)C)C(=O)N[C@H]1C(=O)N[C@@H](CC(N)=O)C(=O)N[C@H]2C(=O)N[C@H]3C(=O)N[C@H](C(=O)N[C@H](C(=O)O)c4cc(O)cc(O)c4-c4cc3ccc4O)[C@H](O)c3ccc(c(Cl)c3)Oc3cc2cc(c3O[C@@H]2O[C@H](CO)[C@@H](O)[C@H](O)[C@H]2O[C@H]2C[C@](C)(N)[C@H](O)[C@H](C)O2)Oc2ccc(cc2Cl)[C@H]1O [Vancomycin, reference compound] | – | >100 | – | – | – | – | – | – | – | – | unable to eradicate | MIC [2]: > 100 µM; MBC ([3]; read-out: MRSE ATCC 35984 MBC): 3 µM (≈ 4.35 µg/mL); MBC ([3]; read-out: MRSE MBC): 3 µM (≈ 4.35 µg/mL); MBC ([4]; read-out: VRE ATCC 700221 MBC): > 200 µM; MBC ([4]; read-out: VRE MBC): > 200 µM; MBC (MRSA BAA-1707): 5.9 µM (≈ 8.55 µg/mL); MBC ([5]; Staphylococcus aureus, MRSA, read-out: MRSA-2 Clinical Isolate MBC, Table 2): 3 to 62.5 µM (≈ 4.35 to 90.6 µg/mL); MBC ([5]; Staphylococcus aureus, MRSA, read-out: MRSA-2 MBC, Table 3): 3 µM (≈ 4.35 µg/mL); MBC [5, 18]: 3.0 µM (≈ 4.35 µg/mL); % Haemolysis at 200 μM (human red blood cells; [20]): ≤1%; % Haemolysis at 200 μM (human red blood cells; Table 3, human red blood cells): ≤1% |
